# Species: Rattus norvegicus
# Assay: DrugMatrix - Regimen: Daily Repeat
# Type: toxicity, organism-based, Sprague-Dawley
# Set-up: regimen Daily Repeat, gender Male, age 6-8 weeks
# Details: in vivo, po, route oral GAVAGE, vehicle .5 % CMC; for ABSOLUTE BASOPHIL / ABSOLUTE EOSINOPHIL / ABSOLUTE LYMPHOCYTE / ABSOLUTE MONOCYTE / ABSOLUTE SEGMENTED NEUTROPHIL / BASOPHIL / EOSINOPHIL / ERYTHROCYTE COUNT / HEMATOCRIT / HEMOGLOBIN / LEUKOCYTE COUNT / LYMPHOCYTE / MEAN CORPUSCULAR HEMOGLOBIN / MEAN CORPUSCULAR HEMOGLOBIN CONCENTRATION / MEAN CORPUSCULAR VOLUME / MONOCYTE / NEUTROPHIL / NUCLEATED RED BLOOD CELLS / PLATELET COUNT: tissue Blood; for ALANINE AMINOTRANSFERASE / ALBUMIN / ALKALINE PHOSPHATASE / ASPARTATE AMINOTRANSFERASE / BLOOD UREA NITROGEN / CARBON DIOXIDE / CHLORIDE / CHOLESTEROL / CREATINE PHOSPHOKINASE / CREATININE / GLUCOSE / LACTATE DEHYDROGENASE / LIPASE / PHOSPHORUS / POTASSIUM / SODIUM / TOTAL BILIRUBIN / TOTAL PROTEIN / URIC ACID: tissue Plasma
# [1] = 0 mg/kg, 72 h, dose level Control, time 3 day
# [2] = 0 mg/kg, 120 h, dose level Control, time 5 day
# [3] = 20 mg/kg, 72 h, dose level Low, time 3 day
smiles,measurement,setting,value
CC(C)(C)NC(=O)[C@@H]1C[C@@H]2CCCC[C@@H]2CN1C[C@@H](O)[C@H](Cc1ccccc1)NC(=O)[C@H](CC(N)=O)NC(=O)c1ccc2ccccc2n1,ABSOLUTE BASOPHIL,[1],0 CELLS/uL
same,ABSOLUTE EOSINOPHIL,[1],222.83 CELLS/uL
same,ABSOLUTE LYMPHOCYTE,[1],14453 CELLS/uL
same,ABSOLUTE MONOCYTE,[1],0 CELLS/uL
same,ABSOLUTE SEGMENTED NEUTROPHIL,[1],1490.83 CELLS/uL
same,BASOPHIL,[1],0%
same,EOSINOPHIL,[1],1.33%
same,ERYTHROCYTE COUNT,[1],5.76 x10E6/uL
same,HEMATOCRIT,[1],36.52%
same,HEMOGLOBIN,[1],13.45 G/DL
same,LEUKOCYTE COUNT,[1],16.17 x10E3/uL
same,LYMPHOCYTE,[1],89.33%
same,MEAN CORPUSCULAR HEMOGLOBIN,[1],23.37 pg
same,MEAN CORPUSCULAR HEMOGLOBIN CONCENTRATION,[1],36.85 G/DL
same,MEAN CORPUSCULAR VOLUME,[1],63.47 fL
same,MONOCYTE,[1],0%
same,NEUTROPHIL,[1],9.33%
same,NUCLEATED RED BLOOD CELLS,[1],0 /100WBC
same,PLATELET COUNT,[1],1239.5 x10E3/uL
same,ALANINE AMINOTRANSFERASE,[1],43.83 u/L
same,ALBUMIN,[1],4.27 G/DL
same,ALKALINE PHOSPHATASE,[1],398.83 u/L
same,ASPARTATE AMINOTRANSFERASE,[1],81.17 u/L
same,BLOOD UREA NITROGEN,[1],17.67 mg/dL
same,CARBON DIOXIDE,[1],27.5 mmol/L
same,CHLORIDE,[1],99.17 MEQ/L
same,CHOLESTEROL,[1],74 mg/dL
same,CREATINE PHOSPHOKINASE,[1],331.5 u/L
same,CREATININE,[1],0.2 mg/dL
same,GLUCOSE,[1],171.33 mg/dL
same,LACTATE DEHYDROGENASE,[1],241.67 u/L
same,LIPASE,[1],9.5 u/L
same,PHOSPHORUS,[1],12.25 mg/dL
same,POTASSIUM,[1],6.33 MEQ/L
same,SODIUM,[1],141.28 MEQ/L
same,TOTAL BILIRUBIN,[1],0.15 mg/dL
same,TOTAL PROTEIN,[1],5.98 G/DL
same,URIC ACID,[1],1.63 mg/dL
same,ABSOLUTE BASOPHIL,[2],0 CELLS/uL
same,ABSOLUTE EOSINOPHIL,[2],148.67 CELLS/uL
same,ABSOLUTE LYMPHOCYTE,[2],16020.5 CELLS/uL
same,ABSOLUTE MONOCYTE,[2],29.17 CELLS/uL
same,ABSOLUTE SEGMENTED NEUTROPHIL,[2],1468.33 CELLS/uL
same,BASOPHIL,[2],0%
same,EOSINOPHIL,[2],1%
same,ERYTHROCYTE COUNT,[2],5.78 x10E6/uL
same,HEMATOCRIT,[2],35.77%
same,HEMOGLOBIN,[2],13.4 G/DL
same,LEUKOCYTE COUNT,[2],17.67 x10E3/uL
same,LYMPHOCYTE,[2],90.5%
same,MEAN CORPUSCULAR HEMOGLOBIN,[2],23.22 pg
same,MEAN CORPUSCULAR HEMOGLOBIN CONCENTRATION,[2],37.47 G/DL
same,MEAN CORPUSCULAR VOLUME,[2],61.92 fL
same,MONOCYTE,[2],0.17%
same,NEUTROPHIL,[2],8.33%
same,NUCLEATED RED BLOOD CELLS,[2],0.17 /100WBC
same,PLATELET COUNT,[2],1255.5 x10E3/uL
same,ALANINE AMINOTRANSFERASE,[2],46.5 u/L
same,ALBUMIN,[2],4.38 G/DL
same,ALKALINE PHOSPHATASE,[2],336 u/L
same,ASPARTATE AMINOTRANSFERASE,[2],76.5 u/L
same,BLOOD UREA NITROGEN,[2],20 mg/dL
same,CARBON DIOXIDE,[2],27.5 mmol/L
same,CHLORIDE,[2],101 MEQ/L
same,CHOLESTEROL,[2],71.33 mg/dL
same,CREATINE PHOSPHOKINASE,[2],231.83 u/L
same,CREATININE,[2],0.37 mg/dL
same,GLUCOSE,[2],168.83 mg/dL
same,LACTATE DEHYDROGENASE,[2],174 u/L
same,LIPASE,[2],8.67 u/L
same,PHOSPHORUS,[2],11.48 mg/dL
same,POTASSIUM,[2],6.82 MEQ/L
same,SODIUM,[2],143.8 MEQ/L
same,TOTAL BILIRUBIN,[2],0.2 mg/dL
same,TOTAL PROTEIN,[2],5.98 G/DL
same,URIC ACID,[2],1.83 mg/dL
same,ABSOLUTE BASOPHIL,[3],0 CELLS/uL
same,ABSOLUTE EOSINOPHIL,[3],240.67 CELLS/uL
same,ABSOLUTE LYMPHOCYTE,[3],11319.33 CELLS/uL
same,ABSOLUTE MONOCYTE,[3],32 CELLS/uL
same,ABSOLUTE SEGMENTED NEUTROPHIL,[3],1141.33 CELLS/uL
same,BASOPHIL,[3],0%
same,EOSINOPHIL,[3],1.67%
same,ERYTHROCYTE COUNT,[3],5.23 x10E6/uL
same,HEMATOCRIT,[3],32.43%
same,HEMOGLOBIN,[3],12.37 G/DL
same,LEUKOCYTE COUNT,[3],12.73 x10E3/uL
same,LYMPHOCYTE,[3],89%
same,MEAN CORPUSCULAR HEMOGLOBIN,[3],23.63 pg
same,MEAN CORPUSCULAR HEMOGLOBIN CONCENTRATION,[3],38.13 G/DL
same,MEAN CORPUSCULAR VOLUME,[3],62 fL
same,MONOCYTE,[3],0.33%
same,NEUTROPHIL,[3],9%
same,NUCLEATED RED BLOOD CELLS,[3],0 /100WBC
same,PLATELET COUNT,[3],1264.33 x10E3/uL
same,ALANINE AMINOTRANSFERASE,[3],43.67 u/L
same,ALBUMIN,[3],4.1 G/DL
same,ALKALINE PHOSPHATASE,[3],371.33 u/L
same,ASPARTATE AMINOTRANSFERASE,[3],73.67 u/L
same,BLOOD UREA NITROGEN,[3],14.33 mg/dL
same,CARBON DIOXIDE,[3],25.67 mmol/L
same,CHLORIDE,[3],102 MEQ/L
same,CHOLESTEROL,[3],79.67 mg/dL
same,CREATINE PHOSPHOKINASE,[3],319.67 u/L
same,CREATININE,[3],0.15 mg/dL
same,GLUCOSE,[3],144.67 mg/dL
same,LACTATE DEHYDROGENASE,[3],139.33 u/L
same,LIPASE,[3],8 u/L
same,PHOSPHORUS,[3],12.8 mg/dL
same,POTASSIUM,[3],6.81 MEQ/L
same,SODIUM,[3],142.53 MEQ/L
same,TOTAL BILIRUBIN,[3],0.2 mg/dL
same,TOTAL PROTEIN,[3],5.67 G/DL
same,URIC ACID,[3],1.47 mg/dL
